Values quoted from earlier work as cited in patent US20060217894A1, “Use of computationally derived protein structures of genetic polymorphisms in pharmacogenomics for drug design and clinical applications” (priority 1999, published 2006).

Biological target: NS3 protease (Hepatitis C virus genotype 1b, UniProt P26663)
Details: values obtained from literature (Ingallinella et al. 1998)

Sequence of NS3 protease (P26663 1027-1657, other chains not shown): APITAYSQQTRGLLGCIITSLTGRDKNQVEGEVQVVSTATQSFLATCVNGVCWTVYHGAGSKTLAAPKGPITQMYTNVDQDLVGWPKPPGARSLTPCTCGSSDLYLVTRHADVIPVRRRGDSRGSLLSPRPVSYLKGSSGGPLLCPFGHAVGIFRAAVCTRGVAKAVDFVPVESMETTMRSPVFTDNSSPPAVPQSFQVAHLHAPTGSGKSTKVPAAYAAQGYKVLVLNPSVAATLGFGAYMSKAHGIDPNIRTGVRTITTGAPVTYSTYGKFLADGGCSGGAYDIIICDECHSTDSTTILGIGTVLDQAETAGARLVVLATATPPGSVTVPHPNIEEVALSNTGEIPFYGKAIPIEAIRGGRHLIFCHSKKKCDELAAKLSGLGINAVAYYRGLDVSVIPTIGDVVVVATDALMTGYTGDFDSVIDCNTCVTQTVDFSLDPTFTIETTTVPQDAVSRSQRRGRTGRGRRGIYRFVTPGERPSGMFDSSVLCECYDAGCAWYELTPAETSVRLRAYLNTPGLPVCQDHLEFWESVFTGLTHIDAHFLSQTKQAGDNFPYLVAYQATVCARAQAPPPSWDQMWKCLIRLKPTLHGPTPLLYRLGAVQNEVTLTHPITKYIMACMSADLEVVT

| Substance | IC50 [nM] |
| --- | --- |
| Ac-Asp^1-D-Glu^2-Leu^3-Ile^4-Cha^5-Cys^6-COO- | 15 |
| Ac-Asp^1-L-Glu^2-Leu^3-Ile^4-Cha^5-Cys^6-COO- | 60 |
